Among the test systems are UACC-62; SN12C; LOX IMVI; HCT-15; KM12; SF-539; MOLT-4; NCI-H23; UACC-257; ACHN; SW-620; MDA-N; HCT-116; SF-295; IGROV-1; SK-MEL-5; CAKI-1; TK-10; UO-31; OVCAR-8.
What all share (experiment): NCI anticancer screen, dose series, 48 h

Here are results for 5 molecules from ChEMBL document CHEMBL1201862, “PubChem BioAssay data set” (2004).

Each structure is given as a SMILES string.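 Following 48 hours of exposure in 96-well plates, responses at five concentrations were used to interpolate endpoints linearly. GI50: concentration for 50% inhibition of growth.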 Calls of active or inactive are those of the source. No stated cut-off is given here; in the data, active = GI50 up to about 1.1 µM and inactive = higher. Bounds are passed on as bounds.

Turning to `O=c1[nH]c2cc([N+](=O)[O-])c(N/N=C/c3ccc(Cl)cc3Cl)c([N+](=O)[O-])c2[nH]1`, the GI50 in the assay with UACC-62 is > 100 µM (inactive); in the assay with SN12C it was 37.5 µM (inactive); with LOX IMVI, 18.5 µM (inactive); in the assay on HCT-15, 40.3 µM; with KM12, 5.85 µM (inactive); in the assay with SF-539, > 100 µM (inactive). Moreover, the GI50 with MOLT-4 was 32.9 µM (inactive); in the assay with NCI-H23 it was 71.3 µM (inactive); with UACC-257 it was > 100 µM (inactive); in the assay on ACHN, 39.8 µM (inactive); in the assay with SW-620, 26.7 µM (inactive); with MDA-N, 7.48 µM (inactive). The GI50 with HCT-116 was 25.7 µM (inactive); with SF-295, > 100 µM (inactive); in the assay on IGROV-1, 25.1 µM (inactive); in the assay on SK-MEL-5, > 100 µM (inactive); in the assay with CAKI-1 it was > 100 µM (inactive); with TK-10 it was 31.6 µM (inactive). In addition, the GI50 in the assay with UO-31 was 41.6 µM (inactive); in the assay on OVCAR-8 it was 20 µM (inactive).

In the case of `Cn1c(N/N=C/c2ccccc2)nc(-c2ccc([N+](=O)[O-])cc2)c(C#N)c1=O`, the GI50 is 27.9 µM (inactive) in the assay with UACC-62; 47.2 µM (inactive) in the assay with SN12C; 61.8 µM (inactive) in the assay with LOX IMVI; 30.5 µM in the assay with HCT-15; 26.9 µM (inactive) with KM12; 69.2 µM (inactive) in the assay on SF-539. Besides, the GI50 in the assay on MOLT-4 was 10.4 µM (inactive); in the assay with NCI-H23, 44.3 µM (inactive); with UACC-257, 50 µM (inactive); in the assay with ACHN it was > 100 µM (inactive); in the assay with SW-620, 65.8 µM (inactive); in the assay with MDA-N, 89.3 µM (inactive). In addition, the GI50 in the assay on HCT-116 is 27.6 µM (inactive); with SF-295, 50.1 µM (inactive); in the assay on IGROV-1 it was 49.3 µM (inactive); in the assay on SK-MEL-5, 35.4 µM (inactive); in the assay on CAKI-1, 54.5 µM (inactive); in the assay with TK-10, 55 µM (inactive). Further, the GI50 with UO-31 is 43.6 µM (inactive); with OVCAR-8, 34.3 µM (inactive).

`Cc1ccc2[nH]c(=N/c3ccccc3C)/c(=N\c3ccccc3C)[nH]c2c1`: the GI50 with UACC-62 is 26.3 µM (inactive); in the assay on SN12C it was 32.7 µM (inactive); with LOX IMVI, 20 µM (inactive); with HCT-15 it was 22.3 µM; with KM12, 17.6 µM (inactive); in the assay on SF-539, 37.2 µM (inactive). In addition, the GI50 in the assay on MOLT-4 was > 100 µM (inactive); in the assay with NCI-H23 it was 15.7 µM (inactive); in the assay on UACC-257, 25.6 µM (inactive); in the assay with ACHN, 31.3 µM (inactive); in the assay with SW-620, 32.3 µM (inactive); in the assay with MDA-N it was 25.5 µM (inactive). Besides, the GI50 was 17.7 µM (inactive) in the assay with HCT-116; 21.4 µM (inactive) in the assay on SF-295; 20 µM (inactive) in the assay on IGROV-1; 22.1 µM (inactive) in the assay on SK-MEL-5; 27.9 µM (inactive) in the assay on CAKI-1; 38.5 µM (inactive) with TK-10. Moreover, the figures for the GI50 in the assay on UO-31 and with OVCAR-8 were 19.4 µM (inactive) and 34.3 µM (inactive), respectively.

Turning to `Cc1cccc(CC(Cc2ccc(C)cc2C(=O)O)C(=O)O)c1` (stereo not given), the GI50 in the assay on UACC-62 is 42 µM (inactive); in the assay with SN12C it was > 100 µM (inactive); in the assay with LOX IMVI, > 100 µM (inactive); in the assay on HCT-15 it was over 100 µM; with KM12 it was > 100 µM (inactive); in the assay on SF-539, > 100 µM (inactive). Besides, the GI50 in the assay on MOLT-4, in the assay on NCI-H23, in the assay with UACC-257, in the assay with ACHN, in the assay on SW-620 and with MDA-N was > 100 µM (inactive) each time. In addition, the GI50 with HCT-116, with SF-295, in the assay on IGROV-1, with SK-MEL-5, in the assay with CAKI-1 and with TK-10 was > 100 µM (inactive) in each case. Besides, the GI50 with UO-31 and in the assay with OVCAR-8 was > 100 µM (inactive) in each case.

For the molecule `COc1ccc(-c2c(C(C)=O)c(C)n(C3OC(COC(C)=O)C(OC(C)=O)C(OC(C)=O)C3OC(C)=O)c(=S)c2C#N)cc1` (stereo not given), the GI50 was 36.6 µM (inactive) with UACC-62; > 100 µM (inactive) in the assay on SN12C; 21.9 µM (inactive) in the assay on LOX IMVI; over 100 µM with HCT-15; > 100 µM (inactive) with KM12; > 100 µM (inactive) with SF-539. The GI50 with MOLT-4 was 43 µM (inactive); with NCI-H23 it was > 100 µM (inactive); with UACC-257 it was > 100 µM (inactive); with ACHN, > 100 µM (inactive); in the assay on SW-620 it was 72.8 µM (inactive); in the assay on MDA-N it was > 100 µM (inactive). Besides, the GI50 is 72.1 µM (inactive) with HCT-116; 69 µM (inactive) in the assay with SF-295; > 100 µM (inactive) with IGROV-1; 63.1 µM (inactive) in the assay on SK-MEL-5; 28.9 µM (inactive) with CAKI-1; > 100 µM (inactive) in the assay with TK-10. The GI50 in the assay on UO-31 is 2.15 µM (inactive); with OVCAR-8 it was > 100 µM (inactive).
